# US20250282794A1 (CURADEV PHARMA LTD, priority 2022, published 2025)
# Biological target: recombinant full length HPK-1 enzyme (Homo sapiens (Human), UniProt Q92918)
# Assay: HPK-1 biochemical enzyme assay (ADP-Glo kinase inhibition)
# Conditions: recombinant full length HPK-1 6.8 nM, 10 μM ATP, 12.5 μM MBP, 30 mins at 25° C.
# Protocol: HPK-1 biochemical enzyme assay
# Compound inhibitory potency was measured in an HPK-1 kinase inhibition assay. Briefly, recombinant full length HPK-1 enzyme (6.8 nM) was incubated with 10 μM ATP and 12.5 μM swine myelin basic protein (MBP) for 30 mins. at 25° C. in the presence of various concentrations of test compound or vehicle in 40 mM Tris.Cl pH7.4 buffer containing 20 mM MgCl2, 50 μM DTT and 0.1 mg/mL BSA. Reactions were quenched and reaction mixtures were then analyzed by an ADP-Glo kit which measures the formed ADP. The percent inhibition was calculated from the substrate conversion considering no enzyme control reactions for 100% inhibition and vehicle only reactions for 0% inhibition. The compounds were dissolved in DMSO and evaluated at 10 concentrations to determine an IC50 value.
# In the below table A denotes an HPK-1 IC50≤10 nM, B denotes an HPK-1 IC50>10 nM but≤100 nM and C denotes an HPK-1 IC50>100 nM but≤1000 nM.
# Sequence of recombinant full length HPK-1 enzyme (Q92918 whole entry, species assumed): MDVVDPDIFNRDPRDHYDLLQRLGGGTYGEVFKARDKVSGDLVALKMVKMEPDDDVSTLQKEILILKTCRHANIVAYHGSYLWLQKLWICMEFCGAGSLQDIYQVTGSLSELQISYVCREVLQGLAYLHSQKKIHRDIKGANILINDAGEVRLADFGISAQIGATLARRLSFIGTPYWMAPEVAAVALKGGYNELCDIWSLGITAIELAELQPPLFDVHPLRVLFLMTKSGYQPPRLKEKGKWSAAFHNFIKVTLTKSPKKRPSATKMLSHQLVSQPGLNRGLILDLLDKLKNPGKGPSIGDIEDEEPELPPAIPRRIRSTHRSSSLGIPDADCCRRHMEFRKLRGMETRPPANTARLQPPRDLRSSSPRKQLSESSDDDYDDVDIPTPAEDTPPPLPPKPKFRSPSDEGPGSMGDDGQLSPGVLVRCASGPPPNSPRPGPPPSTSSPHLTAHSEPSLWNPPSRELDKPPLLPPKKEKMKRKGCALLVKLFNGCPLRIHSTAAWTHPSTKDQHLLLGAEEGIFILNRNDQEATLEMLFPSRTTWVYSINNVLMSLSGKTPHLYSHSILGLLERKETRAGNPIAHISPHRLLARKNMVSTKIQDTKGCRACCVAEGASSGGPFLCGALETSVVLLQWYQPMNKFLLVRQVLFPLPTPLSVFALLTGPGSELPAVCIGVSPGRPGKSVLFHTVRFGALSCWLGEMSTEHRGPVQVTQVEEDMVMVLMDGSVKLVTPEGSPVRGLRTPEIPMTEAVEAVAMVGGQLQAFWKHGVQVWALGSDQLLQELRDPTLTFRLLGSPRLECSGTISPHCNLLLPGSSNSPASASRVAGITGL
row,IC50,SMILES
1,≤ 10 nM,"COCCN1CCN(c2ccc(NC(=O)c3c(Nc4cnc5c(c4C)NCCO5)cc[nH]c3=O)cc2)CC1 [Example 140, N-(4-(4-(2-methoxyethyl)piperazin-1-yl)phenyl)-4-((8-methyl-2,3-dihydro-1H-pyrido[2,3-b][1,4]oxazin-7-yl)amino)-2-oxo-1,2-dihydropyridine-3-carboxamide]"
2,≤ 10 nM,"Cc1c(Nc2cc[nH]c(=O)c2C(=O)Nc2ccc(N3CCN(C(=O)N4CCC(F)(F)C4)CC3)cc2)cnc2c1NCCO2 [Example 143, N-(4-(4-(3,3-difluoropyrrolidine-1-carbonyl)piperazin-1-yl)phenyl)-4-((8-methyl-2,3-dihydro-1H-pyrido[2,3-b][1,4]oxazin-7-yl)amino)-2-oxo-1,2-dihydropyridine-3-carboxamide]"
3,≤ 10 nM,"Cc1c(Nc2cc[nH]c(=O)c2C(=O)Nc2ccc(N3CCN(C4CCCC4)CC3)cc2)cnc2c1NCCO2 [Example 147, N-(4-(4-cyclopentylpiperazin-1-yl)phenyl)-4-((8-methyl-2,3-dihydro-1H-pyrido[2,3-b][1,4]oxazin-7-yl)amino)-2-oxo-1,2-dihydropyridine-3-carboxamide]"
4,≤ 10 nM,"Cc1c(Nc2cc[nH]c(=O)c2C(=O)Nc2ccc(N3CCCC(N)C3)cc2)cnc2c1NCCO2 (centres unmarked) [Example 153, N-(4-(3-aminopiperidin-1-yl)phenyl)-4-((8-methyl-2,3-dihydro-1H-pyrido[2,3-b][1,4]oxazin-7-yl)amino)-2-oxo-1,2-dihydropyridine-3-carboxamide]"
5,≤ 10 nM,"Cc1c(Nc2cc[nH]c(=O)c2C(=O)Nc2ccc(N3CCC(N)CC3)cc2)cnc2c1NCCO2 [Example 154, N-(4-(4-aminopiperidin-1-yl)phenyl)-4-((8-methyl-2,3-dihydro-1H-pyrido[2,3-b][1,4]oxazin-7-yl)amino)-2-oxo-1,2-dihydropyridine-3-carboxamide]"
6,10 to 100 nM,"Cc1c(Nc2cc[nH]c(=O)c2C(=O)Nc2ccc(N3CCC(F)(F)CC3)cc2)cnc2c1NCCO2 [Example 161, N-(4-(4,4-difluoropiperidin-1-yl)phenyl)-4-((8-methyl-2,3-dihydro-1H-pyrido[2,3-b][1,4]oxazin-7-yl)amino)-2-oxo-1,2-dihydropyridine-3-carboxamide]"
7,10 to 100 nM,"Cc1c(Nc2cc[nH]c(=O)c2C(=O)Nc2ccc(N3CCN(C)CC3)cc2)cnc2c1NCC(C)O2 (centres unmarked) [Example 164, 4-((3,8-dimethyl-2,3-dihydro-1H-pyrido[2,3-b][1,4]oxazin-7-yl)amino)-N-(4-(4-methylpiperazin-1-yl)phenyl)-2-oxo-1,2-dihydropyridine-3-carboxamide]"
8,≤ 10 nM,"Cc1c(Nc2cc[nH]c(=O)c2C(=O)Nc2ccc(N3CCN(C)CC3)cc2)cnc2c1NCC(C)O2 (centres unmarked) [Example 165, 4-((3,8-dimethyl-2,3-dihydro-1H-pyrido[2,3-b][1,4]oxazin-7-yl)amino)-N-(4-(4-methylpiperazin-1-yl)phenyl)-2-oxo-1,2-dihydropyridine-3-carboxamide]"
9,≤ 10 nM,"Cc1c(Nc2cc[nH]c(=O)c2C(=O)Nc2ccc(N3CCN(C4CC4)CC3)cc2)cnc2c1NCCO2 [Example 167, N-(4-(4-Cyclopropylpiperazin-1-yl)phenyl)-4-((8-methyl-2,3-dihydro-1H-pyrido[2,3-b][1,4]oxazin-7-yl)amino)-2-oxo-1,2-dihydropyridine-3-carboxamide]"
10,≤ 10 nM,"Cc1c(Nc2cc[nH]c(=O)c2C(=O)Nc2ccc(N3CCN(CC(C)O)CC3)cc2)cnc2c1NCCO2 (centres unmarked) [Example 170, N-(4-(4-(2-hydroxypropyl)piperazin-1-yl)phenyl)-4-((8-methyl-2,3-dihydro-1H-pyrido[2,3-b][1,4]oxazin-7-yl)amino)-2-oxo-1,2-dihydropyridine-3-carboxamide]"

# The next lines start with the molecule.
row,SMILES,IC50
1,"Cc1c(Nc2cc[nH]c(=O)c2C(=O)Nc2ccc(-c3cn[nH]c3)cc2)cnc2c1NCCO2 [Example 144, N-(4-(1H-pyrazol-4-yl)phenyl)-4-((8-methyl-2,3-dihydro-1H-pyrido[2,3-b][1,4]oxazin-7-yl)amino)-2-oxo-1,2-dihydropyridine-3-carboxamide]",10 to 100 nM
2,"Cc1c(Nc2cc[nH]c(=O)c2C(=O)Nc2ccc(-c3cc[nH]n3)cc2)cnc2c1NCCO2 [Example 145, N-(4-(1H-pyrazol-3-yl)phenyl)-4-((8-methyl-2,3-dihydro-1H-pyrido[2,3-b][1,4]oxazin-7-yl)amino)-2-oxo-1,2-dihydropyridine-3-carboxamide]",10 to 100 nM
3,"Cc1c(Nc2cc[nH]c(=O)c2C(=O)Nc2ccc(-c3cnco3)cc2)cnc2c1NCCO2 [Example 146, 4-((8-methyl-2,3-dihydro-1H-pyrido[2,3-b][1,4]oxazin-7-yl)amino)-N-(4-(oxazol-5-yl)phenyl)-2-oxo-1,2-dihydropyridine-3-carboxamide]",10 to 100 nM
4,"Cc1c(Nc2cc[nH]c(=O)c2C(=O)Nc2ccc(-c3cccnc3)cc2)cnc2c1NCCO2 [Example 151, 4-((8-methyl-2,3-dihydro-1H-pyrido[2,3-b][1,4]oxazin-7-yl)amino)-2-oxo-N-(4-(pyridin-3-yl)phenyl)-1,2-dihydropyridine-3-carboxamide]",10 to 100 nM
5,"Cc1c(Nc2cc[nH]c(=O)c2C(=O)Nc2ccc(-c3ccncc3)cc2)cnc2c1NCCO2 [Example 152, 4-((8-methyl-2,3-dihydro-1H-pyrido[2,3-b][1,4]oxazin-7-yl)amino)-2-oxo-N-(4-(pyridin-4-yl)phenyl)-1,2-dihydropyridine-3-carboxamide]",10 to 100 nM
6,"Cc1c(Nc2cc[nH]c(=O)c2C(=O)Nc2ccc(N3CCN(CCO)CC3)cc2)cnc2c1NCC(C)O2 (centres unmarked) [Example 156, 4-((3,8-dimethyl-2,3-dihydro-1H-pyrido[2,3-b][1,4]oxazin-7-yl)amino)-N-(4-(4-(2-hydroxyethyl)piperazin-1-yl)phenyl)-2-oxo-1,2-dihydropyridine-3-carboxamide]",10 to 100 nM
7,"Cc1c(Nc2cc[nH]c(=O)c2C(=O)Nc2ccc(N3CC4CCC(C3)N4C)cc2)cnc2c1NCCO2 [Example 162, 4-((8-methyl-2,3-dihydro-1H-pyrido[2,3-b][1,4]oxazin-7-yl)amino)-N-(4-(8-methyl-3,8-diazabicyclo[3.2.1]octan-3-yl)phenyl)-2-oxo-1,2-dihydropyridine-3-carboxamide]",≤ 10 nM
8,"Cc1c(Nc2cc[nH]c(=O)c2C(=O)Nc2ccc3c(c2)CN(C)CC3)cnc2c1NCCO2 [Example 163, N-(2-Methyl-1,2,3,4-tetrahydroisoquinolin-7-yl)-4-((8-methyl-2,3-dihydro-1H-pyrido[2,3-b][1,4]oxazin-7-yl)amino)-2-oxo-1,2-dihydropyridine-3-carboxamide]",10 to 100 nM
9,"Cc1c(Nc2cc[nH]c(=O)c2C(=O)Nc2ccc3c(c2)OCC2CN(C)CCN32)cnc2c1NCCO2 (centres unmarked) [Example 168, N-(3-Methyl-1,2,3,4,4a,5-hexahydrobenzo[b]pyrazino[1,2-d][1,4]oxazin-8-yl)-4-((8-methyl-2,3-dihydro-1H-pyrido[2,3-b][1,4]oxazin-7-yl)amino)-2-oxo-1,2-dihydropyridine-3-carboxamide]",≤ 10 nM
10,"Cc1c(Nc2cc[nH]c(=O)c2C(=O)Nc2ccc(N3CCN(C(C)C)CC3)cc2)cnc2c1NCC(C)O2 (centres unmarked) [Example 169, 4-((3,8-dimethyl-2,3-dihydro-1H-pyrido[2,3-b][1,4]oxazin-7-yl)amino)-N-(4-(4-isopropylpiperazin-1-yl)phenyl)-2-oxo-1,2-dihydropyridine-3-carboxamide]",≤ 10 nM
